In patent US20160229839A1, “Factor XIa Inhibitors” (Merck Sharp & Dohme Corp., priority 2013, published 2016):

The molecules below were run against T1, purified human Factor XIa (Homo sapiens, UniProt P03951) (assay: Factor XIa Assay (fluorogenic substrate Z-Gly-Pro-Arg-AFC)). Settings: purified human Factor XIa 40 pM; Z-Gly-Pro-Arg-AFC 100 μM; 50 mM HEPES pH 7.4; read-out: hFXIa Ki (nM), Factor XIa inhibition.
T1 construct: purified human Factor XIa; purchased Sekisui Diagnostics
T1 sequence (P03951 388-625 limits assumed): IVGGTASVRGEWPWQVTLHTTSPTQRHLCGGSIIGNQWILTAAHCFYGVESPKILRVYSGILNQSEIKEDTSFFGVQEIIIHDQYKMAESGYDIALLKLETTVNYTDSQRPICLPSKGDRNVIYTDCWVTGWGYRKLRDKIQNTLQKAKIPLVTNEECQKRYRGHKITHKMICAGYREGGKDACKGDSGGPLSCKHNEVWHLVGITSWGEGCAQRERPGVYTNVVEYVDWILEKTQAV
T1 sequence (P03951 19-387 partner limits assumed): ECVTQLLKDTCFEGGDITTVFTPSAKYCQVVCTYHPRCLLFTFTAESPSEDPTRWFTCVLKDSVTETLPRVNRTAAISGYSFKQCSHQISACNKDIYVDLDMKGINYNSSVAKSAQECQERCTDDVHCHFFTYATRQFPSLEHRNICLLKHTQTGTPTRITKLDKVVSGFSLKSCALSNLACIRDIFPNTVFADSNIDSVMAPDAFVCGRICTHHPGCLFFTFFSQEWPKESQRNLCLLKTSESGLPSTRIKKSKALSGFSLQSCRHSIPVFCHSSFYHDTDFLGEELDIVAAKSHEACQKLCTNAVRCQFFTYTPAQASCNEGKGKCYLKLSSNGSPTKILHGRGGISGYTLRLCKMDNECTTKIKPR
Assay type: biochemical
Description: The effectiveness of compound of the present invention as inhibitors of Coagulation Factor XIa can be determined using a relevant purified serine protease, and an appropriate synthetic substrate. The rate of hydrolysis of the chromogenic or fluorogenic substrate by the relevant serine protease was measured both in the absence and presence of compounds of the present invention. Assays were conducted at room temperature or at 37° C. […] A decrease in the rate of fluorescence change in the presence of inhibitor is indicative of enzyme inhibition. Such methods are known to one skilled in the art. The results of this assay are expressed as the inhibitory constant, Ki.
Factor XIa determinations were made in 50 mM HEPES buffer at pH 7.4 containing 150 mM NaCl, 5 mM CaCl2, and 0.1% PEG 8000 (polyethylene glycol; J T Baker or Fisher Scientific). Determinations were made using purified human Factor XIa at a final concentration of 40 pM (Sekisui Diagnostics) and he synthetic substrate, Z-Gly-Pro-Arg-AFC, TFA salt (Sigma #C0980) at a concentration of 100 μM.
Activity assays were performed by diluting a stock solution of substrate at least tenfold to a final concentration ≦0.1 Km into a solution containing enzyme or enzyme equilibrated with inhibitor. Times required to achieve equilibration between enzyme and inhibitor were determined in control experiments. Initial velocities of product formation in the absence (Vo) or presence of inhibitor (Vi) were measured. Assuming competitive inhibition, and that unity is negligible compared Km/[S], [I]/e, and [I]/e (where [S], [I], and e respectively represent the total concentrations, of substrate, inhibitor and enzyme), the equilibrium constant (Ki) for dissociation of the inhibitor from the enzyme can be obtained from the dependence of Vo/Vi on [I] shown in the following equation.
A Ki of 25.3 nM was found for O=C(O)c1ccc(NC(=O)C2C(c3ccc(F)cc3)CCCN2C(=O)/C=C/c2cc(Cl)ccc2-n2cnnn2)cc1 (stereo not drawn) [Example 1-18, ammonium (E)-4-(1-(3-(5-chloro-2-(1H-tetrazol-1-yl)phenyl)acryloyl)-3-(4-fluorophenyl)piperidine-2-carboxamido)benzoate] in this work. A Ki of over 10000 nM was found for O=C(O)C1CCC(NC(=O)C2C(c3ccc(F)cc3F)CCCN2C(=O)/C=C/c2cc(Cl)ccc2-n2cnnn2)CC1 (stereo not drawn) [Example 1-19, ammonium (E)-4-(1-(3-(5-chloro-2-(1H-tetrazol-1-yl)phenyl)acryloyl)-3-(2,4-difluorophenyl)piperidine-2-carboxamido)cyclohexanecarboxylate] in this work. A Ki of 627 nM was found for NCc1ccc(C(=O)N2CCCC(c3ccccc3)C2C(=O)Nc2ccc(C(=O)O)cc2)cc1 (stereo not drawn) [Example 1-20, (4-(2-((4-carboxyphenyl)carbamoyl)-3-phenylpiperidine-1-carbonyl)phenyl)methanaminium 2,2,2-trifluoroacetate] in this work. A Ki of 15.4 nM was found for N=C(N)N1CCC(C(=O)N2CCCC(c3ccccc3)C2C(=O)Nc2ccc(C(=O)O)cc2)CC1 (stereo not drawn) [Example 1-8, 4-(1-(1-carbamimidoylpiperidine-4-carbonyl)-3-phenylpiperidine-2-carboxamido)benzoic acid] in this work. A Ki of over 10000 nM was found for CCCC(=O)Nc1cc(NC(=O)OC)ccc1-c1c[nH]c(C2C(c3ccccc3)CCCN2C(=O)/C=C/c2cc(Cl)ccc2-n2cnnn2)n1 (stereo not drawn) [Example 1-51, (E)-methyl (3-butyramido-4-(2-(1-(3-(5-chloro-2-(1H-tetrazol-1-yl)phenyl)acryloyl)-3-phenylpiperidin-2-yl)-1H-imidazol-4-yl)phenyl)carbamate] in this work. A Ki of 916 nM was found for NCC1CCC(C(=O)N2CCCC(c3ccccc3)C2C(=O)Nc2ccc(C(=O)O)cc2)CC1 (stereo not drawn) [Example 1-49, 4-(1-(4-(aminomethyl)cyclohexanecarbonyl)-3-phenylpiperidine-2-carboxamido)benzoic acid] in this work. A Ki of over 10000 nM was found for COC(=O)c1ccc(-c2c[nH]c(C3C(c4ccccc4)CCCN3C(=O)/C=C/c3cc(Cl)ccc3-n3cnnn3)n2)cc1 (stereo not drawn) [Example 1-40, (E)-methyl 4-(2-(1-(3-(5-chloro-2-(1H-tetrazol-1-yl)phenyl)acryloyl)-3-phenylpiperidin-2-yl)-1H-imidazol-4-yl)benzoate] in this work. A Ki of 411 nM was found for COC(=O)Nc1ccc(-c2c[nH]c(C3C(c4ccccc4)CCCN3C(=O)/C=C/c3cc(Cl)ccc3-n3cnnn3)n2)c(Br)c1 (stereo not drawn) [Example 1-44, (E)-methyl (3-bromo-4-(2-(1-(3-(5-chloro-2-(1H-tetrazol-1-yl)phenyl)acryloyl)-3-phenylpiperidin-2-yl)-1H-imidazol-4-yl)phenyl)carbamate] in this work. A Ki of 5730 nM was found for O=C(O)c1cccc(-c2c[nH]c([C@H]3[C@@H](c4ccccc4)CCCN3C(=O)/C=C/c3cc(Cl)ccc3-n3cnnn3)n2)c1 (single isomer, unassigned) [Example 1-70] in this work. A Ki of over 10000 nM was found for COC(=O)c1cccc(-c2c[nH]c(C3C(c4ccccc4)CCCN3C(=O)/C=C/c3cc(Cl)ccc3-n3cnnn3)n2)c1 (racemic) [Example 1-54, (E)-methyl 3-(2-(1-(3-(5-chloro-2-(1H-tetrazol-1-yl)phenyl)acryloyl)-3-phenylpiperidin-2-yl)-1H-imidazol-4-yl)benzoate] in this work. A Ki of 905 nM was found for O=C(/C=C/c1cc(Cl)ccc1-n1cnnn1)N1CCCC(c2ccccc2)C1c1nc(-c2cccnc2)c[nH]1 (stereo not drawn) [Example 1-7, (E)-3-(5-chloro-2-(1H-tetrazol-1-yl)phenyl)-1-(3-phenyl-2-(4-(pyridin-3-yl)-1H-imidazol-2-yl)piperidin-1-yl)prop-2-en-1-one] in this work. A Ki of 4010 nM was found for O=C(O)c1ccc(NC(=O)[C@H]2[C@@H](c3ccccc3)CCCN2C(=O)/C=C/c2cc(Cl)ccc2-n2cnnn2)cc1 [Example 1-56, 4-((2R,3R)-1-((E)-3-(5-chloro-2-(1H-tetrazol-1-yl)phenyl)acryloyl)-3-phenylpiperidine-2-carboxamido)benzoic acid] in this work. A Ki of 19.3 nM was found for O=C(O)c1cccc(-c2c[nH]c([C@@H]3[C@H](c4ccccc4)CCCN3C(=O)/C=C/c3cc(Cl)ccc3-n3cnnn3)n2)c1 (single isomer, unassigned) [Example 1-69] in this work. A Ki of over 10000 nM was found for COC(=O)Nc1ccc(-c2c[nH]c(C3C(c4ccccc4)CCCN3C(=O)/C=C/c3cc(Cl)ccc3-n3cnnn3)n2)cc1 (stereo not drawn) [Example 1-47, (E)-methyl (4-(2-(1-(3-(5-chloro-2-(1H-tetrazol-1-yl)phenyl)acryloyl)-3-phenylpiperidin-2-yl)-1H-imidazol-4-yl)phenyl)carbamate] in this work. A Ki of 95.8 nM was found for COC(=O)Nc1ccc(-c2nc(C3C(c4ccccc4)CCCN3C(=O)/C=C/c3cc(Cl)ccc3-n3cnnn3)[nH]c2C)cc1 (stereo not drawn) [Example 1-52, (E)-methyl (4-(2-(1-(3-(5-chloro-2-(1H-tetrazol-1-yl)phenyl)acryloyl)-3-phenylpiperidin-2-yl)-5-methyl-1H-imidazol-4-yl)phenyl)carbamate] in this work. A Ki of 56.9 nM was found for O=C(O)c1cccc(-c2c[nH]c(C3C(c4ccccc4)CCCN3C(=O)/C=C/c3cc(Cl)ccc3-n3cnnn3)n2)c1 (stereo not drawn) [Example 1-58, (E)-3-(2-(1-(3-(5-chloro-2-(1H-tetrazol-1-yl)phenyl)acryloyl)-3-phenylpiperidin-2-yl)-1H-imidazol-4-yl)benzoic acid] in this work. A Ki of 3270 nM was found for O=C(/C=C/c1cc(Cl)ccc1-n1cnnn1)N1CCCC(c2ccccc2)C1c1nc(-c2ccccn2)c[nH]1 (stereo not drawn) [Example 1-41, (E)-3-(5-chloro-2-(1H-tetrazol-1-yl)phenyl)-1-(3-phenyl-2-(4-(pyridin-2-yl)-1H-imidazol-2-yl)piperidin-1-yl)prop-2-en-1-one] in this work. A Ki of 18.1 nM was found for O=C(O)c1ccc(NC(=O)C2C(c3cccc(F)c3)CCCN2C(=O)/C=C/c2cc(Cl)ccc2-n2cnnn2)cc1 (stereo not drawn) [Example 1-10, (E)-4-(1-(3-(5-chloro-2-(H-tetrazol-1-yl)phenyl)acryloyl)-3-(3-fluorophenyl)piperidine-2-carboxamido)benzoic acid] in this work. A Ki of 103 nM was found for COC(=O)Nc1ccc(-c2c[nH]c(C3C(c4ccccc4)CCCN3C(=O)/C=C/c3cc(Cl)ccc3-n3cnnn3)n2)c(N)c1 (stereo not drawn) [Example 1-48, (E)-methyl (3-amino-4-(2-(1-(3-(5-chloro-2-(1H-tetrazol-1-yl)phenyl)acryloyl)-3-phenylpiperidin-2-yl)-1H-imidazol-4-yl)phenyl)carbamate] in this work. A Ki of 2850 nM was found for O=C(O)c1ccc(NC(=O)C2C(c3cccc(C(F)(F)F)c3)CCCN2C(=O)/C=C/c2cc(Cl)ccc2-n2cnnn2)cc1 (stereo not drawn) [Example 1-17, ammonium (E)-4-(1-(3-(5-chloro-2-(1H-tetrazol-1-yl)phenyl)acryloyl)-3-(3-(trifluoromethyl)phenyl)piperidine-2-carboxamido)benzoate] in this work. A Ki of over 10000 nM was found for N#Cc1cccc(-c2c[nH]c(C3C(c4ccccc4)CCCN3C(=O)/C=C/c3cc(Cl)ccc3-n3cnnn3)n2)c1 (stereo not drawn) [Example 1-27, (E)-3-(2-(1-(3-(5-chloro-2-(1H-tetrazol-1-yl)phenyl)acryloyl)-3-phenylpiperidin-2-yl)-1H-imidazol-4-yl)benzonitrile] in this work. A Ki of 80.9 nM was found for O=C(O)c1ccc(NC(=O)[C@@H]2[C@H](c3ccccc3)CCCN2C(=O)/C=C/c2cc(Cl)ccc2-n2cnnn2)cc1 (racemic) [Example 1-2, (E)-1-(2-(3-(2-((4-carboxyphenyl)carbamoyl)-3-phenylpiperidin-1-yl)-3-oxoprop-1-en-1-yl)-4-chlorophenyl)-1H-tetrazol-2-ium 2,2,2-trifluoroacetate] in this work. A Ki of over 10000 nM was found for CS(=O)(=O)c1ccc(-c2c[nH]c(C3C(c4ccccc4)CCCN3C(=O)/C=C/c3cc(Cl)ccc3-n3cnnn3)n2)cc1 (stereo not drawn) [Example 1-29, (E)-3-(5-chloro-2-(1H-tetrazol-1-yl)phenyl)-1-(2-(4-(4-(methylsulfonyl)phenyl)-1H-imidazol-2-yl)-3-phenylpiperidin-1-yl)prop-2-en-1-one] in this work. A Ki of 8510 nM was found for N#Cc1ccc(-c2c[nH]c(C3C(c4ccccc4)CCCN3C(=O)CCc3cc(Cl)ccc3-n3cnnn3)n2)cc1 (stereo not drawn) [Example 1-24, 4-(2-(1-(3-(5-chloro-2-(1H-tetrazol-1-yl)phenyl)propanoyl)-3-phenylpiperidin-2-yl)-1H-imidazol-4-yl)benzonitrile] in this work. A Ki of 5250 nM was found for O=C(O)C1CCC(NC(=O)C2C(C3CCCCC3)CCCN2C(=O)/C=C/c2cc(Cl)ccc2-n2cnnn2)CC1 (stereo not drawn) [Example 1-6, 2,2,2-trifluoroacetate] in this work. A Ki of over 10000 nM was found for COC(=O)Nc1ccc(-c2nc([C@H]3[C@@H](c4ccccc4)CCCN3C(=O)/C=C/c3cc(Cl)ccc3-n3cnnn3)[nH]c2Cl)cc1 [Example 1-64, methyl (4-(5-chloro-2-((2R,3R)-1-((E)-3-(5-chloro-2-(1H-tetrazol-1-yl)phenyl)acryloyl)-3-phenylpiperidin-2-yl)-1H-imidazol-4-yl)phenyl)carbamate] in this work. A Ki of 218 nM was found for O=C(O)c1ccc(NC(=O)C2C(c3ccc(C(F)(F)F)cc3)CCCN2C(=O)/C=C/c2cc(Cl)ccc2-n2cnnn2)cc1 (stereo not drawn) [Example 1-32, (E)-4-(1-(3-(5-chloro-2-(1H-tetrazol-1-yl)phenyl)acryloyl)-3-(4-(trifluoromethyl)phenyl)piperidine-2-carboxamido)benzoic acid] in this work.
